Experiments:
EGFR L858R = EGFR L858R (Homo sapiens (Human), UniProt P00533, L858R); assay: Biochemical EGFR inhibition assay, EGFR L858R; settings: Caliper mobility shift; 1.0 mM ATP or ATP Km; read-out: Enz EGFR_L858R IC50
[1] = target: pEGFR (Tyr1068) in PC-9 cells (Ex19Del) (Homo sapiens (Human), UniProt P00533, DEL746-750); assay: PC-9 pEGFR AlphaLISA assay; format: cell-based; settings: 4 hours incubation, p-EGFR (Tyr1068) AlphaLISA, read-out: Ext pEGFR_PC-9 Ex19Del IC50
Summary of the method: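 Compounds are added in ten 4-fold dilutions to adherent cells grown in serum-containing (10% FBS) phenol-free DMEM and left for 4 hours at 37° C. Phosphorylated receptor in lysates is quantified by bead-based AlphaLISA. IC50 values derive from inhibition plotted against log dose.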

EGFR (d746-750) = EGFR (d746-750) (Homo sapiens (Human), UniProt P00533, DEL746-750); assay: Biochemical EGFR inhibition assay, EGFR (d746-750); settings: Caliper mobility shift; 1.0 mM ATP or ATP Km; read-out: Enz EGFR_Exon19-del746-750 IC50
EGFR (d746-750), sequence (P00533 other isoform, or with tags, fused parts or gaps del 1-694/del 746-750 limits assumed): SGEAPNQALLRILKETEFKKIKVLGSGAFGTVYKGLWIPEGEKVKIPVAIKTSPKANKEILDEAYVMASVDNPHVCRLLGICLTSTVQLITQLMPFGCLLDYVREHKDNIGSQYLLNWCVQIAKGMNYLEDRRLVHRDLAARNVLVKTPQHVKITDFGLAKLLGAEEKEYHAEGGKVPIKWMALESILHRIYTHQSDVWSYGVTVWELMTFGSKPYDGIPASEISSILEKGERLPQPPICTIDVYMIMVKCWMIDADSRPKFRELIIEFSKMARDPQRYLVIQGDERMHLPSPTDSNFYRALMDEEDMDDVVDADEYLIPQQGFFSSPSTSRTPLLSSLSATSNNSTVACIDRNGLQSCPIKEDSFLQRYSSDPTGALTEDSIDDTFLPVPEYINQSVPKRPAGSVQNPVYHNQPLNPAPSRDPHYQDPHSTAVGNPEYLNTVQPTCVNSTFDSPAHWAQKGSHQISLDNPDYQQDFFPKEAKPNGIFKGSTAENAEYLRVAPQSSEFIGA

EGFR L858R, sequence (P00533 25-1210 L858R): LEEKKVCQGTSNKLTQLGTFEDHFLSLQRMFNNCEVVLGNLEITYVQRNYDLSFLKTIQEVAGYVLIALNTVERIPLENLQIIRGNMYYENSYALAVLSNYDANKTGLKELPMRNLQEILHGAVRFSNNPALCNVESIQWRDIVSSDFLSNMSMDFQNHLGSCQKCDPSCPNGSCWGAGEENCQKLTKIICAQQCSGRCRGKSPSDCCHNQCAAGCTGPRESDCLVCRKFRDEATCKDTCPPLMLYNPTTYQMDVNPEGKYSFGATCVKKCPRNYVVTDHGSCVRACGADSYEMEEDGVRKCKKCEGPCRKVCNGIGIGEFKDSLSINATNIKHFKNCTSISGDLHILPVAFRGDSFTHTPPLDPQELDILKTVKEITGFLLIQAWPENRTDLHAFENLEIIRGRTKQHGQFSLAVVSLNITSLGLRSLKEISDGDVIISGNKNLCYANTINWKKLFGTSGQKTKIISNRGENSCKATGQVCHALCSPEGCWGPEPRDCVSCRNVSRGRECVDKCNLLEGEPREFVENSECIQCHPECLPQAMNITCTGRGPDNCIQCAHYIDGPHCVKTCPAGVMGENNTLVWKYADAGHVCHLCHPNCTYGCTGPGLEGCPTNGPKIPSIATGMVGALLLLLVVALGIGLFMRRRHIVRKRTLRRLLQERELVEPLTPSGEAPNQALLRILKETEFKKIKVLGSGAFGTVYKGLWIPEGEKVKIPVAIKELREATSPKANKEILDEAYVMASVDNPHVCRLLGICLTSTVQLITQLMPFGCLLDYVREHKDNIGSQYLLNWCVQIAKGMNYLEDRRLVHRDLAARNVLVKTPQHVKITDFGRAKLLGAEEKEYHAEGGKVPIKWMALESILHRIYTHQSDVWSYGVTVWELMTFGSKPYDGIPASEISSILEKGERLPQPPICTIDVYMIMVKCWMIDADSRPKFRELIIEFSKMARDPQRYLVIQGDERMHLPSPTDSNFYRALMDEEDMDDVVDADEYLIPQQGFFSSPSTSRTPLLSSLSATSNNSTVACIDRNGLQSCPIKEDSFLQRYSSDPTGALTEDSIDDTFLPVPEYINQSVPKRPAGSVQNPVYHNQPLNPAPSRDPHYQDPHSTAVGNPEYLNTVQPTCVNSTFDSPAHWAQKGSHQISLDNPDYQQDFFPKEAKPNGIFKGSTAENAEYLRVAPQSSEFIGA
pEGFR (Tyr1068) in PC-9 cells (Ex19Del), sequence (P00533 other isoform, or with tags, fused parts or gaps del 746-750): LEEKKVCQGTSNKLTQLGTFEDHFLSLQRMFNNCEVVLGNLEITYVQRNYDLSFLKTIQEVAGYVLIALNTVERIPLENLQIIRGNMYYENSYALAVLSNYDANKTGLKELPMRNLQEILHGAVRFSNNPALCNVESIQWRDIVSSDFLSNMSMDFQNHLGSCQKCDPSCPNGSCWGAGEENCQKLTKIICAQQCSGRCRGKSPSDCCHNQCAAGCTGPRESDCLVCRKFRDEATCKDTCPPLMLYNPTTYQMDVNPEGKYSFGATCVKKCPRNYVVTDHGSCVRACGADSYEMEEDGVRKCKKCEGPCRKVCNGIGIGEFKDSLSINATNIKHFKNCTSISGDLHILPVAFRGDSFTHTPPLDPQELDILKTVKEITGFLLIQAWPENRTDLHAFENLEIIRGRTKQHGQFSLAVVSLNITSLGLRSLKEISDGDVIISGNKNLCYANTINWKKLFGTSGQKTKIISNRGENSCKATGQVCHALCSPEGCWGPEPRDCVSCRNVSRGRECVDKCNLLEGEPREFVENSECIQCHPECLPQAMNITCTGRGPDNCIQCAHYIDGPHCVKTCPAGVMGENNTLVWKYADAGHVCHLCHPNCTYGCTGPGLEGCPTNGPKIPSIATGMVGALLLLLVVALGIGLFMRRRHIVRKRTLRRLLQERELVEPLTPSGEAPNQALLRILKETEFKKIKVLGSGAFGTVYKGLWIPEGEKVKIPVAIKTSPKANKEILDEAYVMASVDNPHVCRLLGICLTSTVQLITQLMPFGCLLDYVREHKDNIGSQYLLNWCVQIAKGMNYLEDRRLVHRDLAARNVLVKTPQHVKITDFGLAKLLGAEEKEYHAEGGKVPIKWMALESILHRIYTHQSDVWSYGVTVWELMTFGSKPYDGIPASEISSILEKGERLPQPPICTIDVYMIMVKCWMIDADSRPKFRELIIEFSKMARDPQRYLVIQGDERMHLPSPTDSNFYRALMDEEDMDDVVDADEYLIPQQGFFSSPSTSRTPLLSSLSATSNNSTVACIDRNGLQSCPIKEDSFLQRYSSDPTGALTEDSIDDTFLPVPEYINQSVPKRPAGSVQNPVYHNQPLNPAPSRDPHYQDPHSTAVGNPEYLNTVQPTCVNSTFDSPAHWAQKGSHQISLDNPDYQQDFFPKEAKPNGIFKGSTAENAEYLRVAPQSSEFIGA

| SMILES | IC50 (EGFR L858R) | IC50 [1] | IC50 (EGFR (d746-750)) |
| --- | --- | --- | --- |
| CCn1cc(-c2ncnc3cc(OC)c(NC(=O)[C@@]45COC[C@@H]4C5)nc23)c(-c2ccccc2)n1 (single isomer, unassigned) [Example 389, (1R,5R)—N-(4-(1-ethyl-3-phenyl-1H-pyrazol-4-yl)-7-methoxypyrido[3,2-d]pyrimidin-6-yl)-3-oxabicyclo[3.1.0]hexane-1-carboxamide or (1S,5S)—N-(4-(1-ethyl-3-phenyl-1H-pyrazol-4-yl)-7-methoxypyrido[3,2-d]pyrimidin-6-yl)-3-oxabicyclo[3.1.0]hexane-1-carboxamide] | 6.4 nM | 0.4 nM | 0.7 nM |
| COc1cc2ncnc(-c3cn(C)nc3-c3ccccc3)c2cc1NC(=O)c1ccccc1N1CCNCC1 [Example 227, N-(7-methoxy-4-(1-methyl-3-phenyl-1H-pyrazol-4-yl)quinazolin-6-yl)-2-(piperazin-1-yl)benzamide] | 15.2 nM | 6.7 nM | 2.7 nM |
| COc1cc2ncnc(-c3cn(C)nc3-c3ccccc3)c2cc1N1CC[C@@H](F)[C@H](O)C1 (single isomer, unassigned) [Example 173, (3R,4R)-4-fluoro-1-(7-methoxy-4-(1-methyl-3-phenyl-1H-pyrazol-4-yl)quinazolin-6-yl) piperidin-3-ol or (3S,4S)-4-fluoro-1-(7-methoxy-4-(1-methyl-3-phenyl-1H-pyrazol-4-yl)quinazolin-6-yl) piperidin-3-ol] | 9 nM | 13.8 nM | 3.6 nM |
| COc1cc2ncnc(-c3cn(C)nc3-c3ccccc3)c2cc1NC(=O)[C@H]1C[C@@H]1C(F)(F)F [Example 287, (1S,2S)—N-(7-methoxy-4-(1-methyl-3-phenyl-1H-pyrazol-4-yl)quinazolin-6-yl)-2-(trifluoromethyl)cyclopropane-1-carboxamide] | 4.5 nM | 13 nM | 1.2 nM |
| CCc1cc2ncnc(-c3cn(C)nc3-c3ccccc3)c2nc1NC(=O)C12COCC1C2 (stereo not drawn) [Example 452, N-(7-ethyl-4-(1-methyl-3-phenyl-1H-pyrazol-4-yl)pyrido[3,2-d]pyrimidin-6-yl)-3-oxabicyclo[3.1.0]hexane-1-carboxamide] | 28.9 nM | 14.8 nM | 5.3 nM |
| COc1cc2ncnc(-c3cn(C)nc3-c3ccccc3F)c2cc1OC(=O)N1CCN(C)C[C@@H]1C [Example 66, 4-(3-(2-fluorophenyl)-1-methyl-1H-pyrazol-4-yl)-7-methoxyquinazolin-6-yl (S)-2,4-dimethylpiperazine-1-carboxylate] | 2.9 nM | 5.2 nM | 2.2 nM |
| CN(C)CCOc1cc2ncnc(-c3cn(C)nc3-c3ccccc3)c2nc1NC(=O)C1(C(F)(F)F)CC1 [Example 434, N-(7-(2-(dimethylamino)ethoxy)-4-(1-methyl-3-phenyl-1H-pyrazol-4-yl)pyrido[3,2-d]pyrimidin-6-yl)-1-(trifluoromethyl)cyclopropane-1-carboxamide] | 6.8 nM | 3.5 nM | 2 nM |
| COc1cc2ncnc(-c3cn(C)nc3-c3c(F)cccc3F)c2cc1NC(=O)[C@]12C[C@H]1CN(C)C2 [Example 293, (1R,5R)—N-(4-(3-(2,6-difluorophenyl)-1-methyl-1H-pyrazol-4-yl)-7-methoxyquinazolin-6-yl)-3-methyl-3-azabicyclo[3.1.0]hexane-1-carboxamide] | 277 nM | 8.9 nM | 3.4 nM |
| [2H]C([2H])([2H])Oc1cc2ncnc(-c3cnn(C([2H])([2H])[2H])c3-c3ccccc3)c2nc1NC(=O)C1(C(F)(F)F)CC1 [Example 487, N-(7-(methoxy-d3)-4-(1-(methyl-d3)-5-phenyl-1H-pyrazol-4-yl)pyrido[3,2-d]pyrimidin-6-yl)-1-(trifluoromethyl)cyclopropane-1-carboxamide] | 50 nM | 173 nM | 19.5 nM |
| COc1cc2ncnc(-c3cn(C)nc3-c3ccccc3)c2cc1C(C)(C)O [Example 121, 2-(7-methoxy-4-(1-methyl-3-phenyl-1H-pyrazol-4-yl)quinazolin-6-yl) propan-2-ol] | 7.6 nM | 13.8 nM | 2.7 nM |
| COc1cc2ncnc(-c3cn(C)nc3-c3ccccc3)c2cc1NC(=O)C1(C)COC1 [Example 345, N-(7-methoxy-4-(1-methyl-3-phenyl-1H-pyrazol-4-yl)quinazolin-6-yl)-3-methyloxetane-3-carboxamide] | 4.7 nM | 7.8 nM | 1.9 nM |
| COc1cc2ncnc(-c3cn(C)nc3-c3ccccc3)c2cc1-c1ccc(OC)c2n[nH]cc12 [Example 151, 7-methoxy-6-(7-methoxy-2H-indazol-4-yl)-4-(1-methyl-3-phenyl-1H-pyrazol-4-yl)quinazoline] | 8.2 nM | 8.7 nM | 1.9 nM |
| COc1cc2ncnc(-c3cn(C)nc3-c3ccccc3F)c2nc1NC(=O)[C@]12C[C@H]1CN(C)C2 [Example 374, (1R,5R)—N-(4-(3-(2-fluorophenyl)-1-methyl-1H-pyrazol-4-yl)-7-methoxypyrido[3,2-d]pyrimidin-6-yl)-3-methyl-3-azabicyclo[3.1.0]hexane-1-carboxamide] | 4.3 nM | 3.6 nM | 1.4 nM |

Results, then the molecule that gave them:

| IC50 (EGFR L858R) | IC50 [1] | IC50 (EGFR (d746-750)) | SMILES |
| --- | --- | --- | --- |
| 3.8 nM | 4.7 nM | 2.2 nM | CCOc1cc2ncnc(-c3cn(C(C)C)nc3-c3ccccc3)c2cc1[C@@H](C)O (single isomer, unassigned) [Example 109, (R)-1-(7-ethoxy-4-(1-isopropyl-3-phenyl-1H-pyrazol-4-yl)quinazolin-6-yl)ethan-1-ol or (S)-1-(7-ethoxy-4-(1-isopropyl-3-phenyl-1H-pyrazol-4-yl)quinazolin-6-yl)ethan-1-ol] |
| 2.3 nM | 3.5 nM | 1.7 nM | COc1cc2ncnc(-c3cn(C)nc3-c3ccccc3)c2cc1O[C@H]1CN(C)C[C@@H]1F [Example 6, 6-(((3S,4S)-4-fluoro-1-methylpyrrolidin-3-yl)oxy)-7-methoxy-4-(1-methyl-3-phenyl-1H-pyrazol-4-yl)quinazoline] |
| 3.5 nM | 5.3 nM | 2.1 nM | COc1cc2ncnc(-c3cn(C)nc3-c3ccccc3)c2nc1O[C@@H](C)c1cocn1 [Example 39, (S)-4-(1-((7-methoxy-4-(1-methyl-3-phenyl-1H-pyrazol-4-yl)pyrido[3,2-d]pyrimidin-6-yl)oxy)ethyl) oxazole] |
| 0.9 nM | 1.4 nM | 0.3 nM | Cn1cc(-c2ncnc3cc(O)c(NC(=O)C4(C(F)(F)F)CC4)nc23)c(-c2ccccc2)n1 [Example 464, N-[7-hydroxy-4-(1-methyl-3-phenyl-1H-pyrazol-4-yl)pyrido[3,2-d]pyrimidin-6-yl]-1-(trifluoromethyl)cyclopropane-1-carboxamide] |
| 3.6 nM | 5.5 nM | 1.4 nM | CCOc1cc2ncnc(-c3cn(C)nc3-c3ccccc3)c2cc1N1CCOCC1 [Example 163, 4-(7-ethoxy-4-(1-methyl-3-phenyl-1H-pyrazol-4-yl)quinazolin-6-yl)morpholine] |
| 2.7 nM | 0.8 nM | 2 nM | CCCn1cc(-c2ncnc3cc(OC)c(NC(=O)c4ccc(C5CC5)nc4)cc23)c(-c2ccccc2)n1 [Example 301, 6-cyclopropyl-N-(7-methoxy-4-(3-phenyl-1-propyl-1H-pyrazol-4-yl)quinazolin-6-yl)nicotinamide] |
| 4 nM | 11.6 nM | 2.1 nM | CCOc1cc2ncnc(-c3cn(C)nc3-c3ccccc3)c2cc1Cn1ncnc1C [Example 134, 7-ethoxy-6-((5-methyl-1H-1,2,4-triazol-1-yl)methyl)-4-(1-methyl-3-phenyl-1H-pyrazol-4-yl)quinazoline] |
| 3.3 nM | 2.5 nM | 1.6 nM | COc1cc2ncnc(-c3cn(C)nc3-c3ccccc3)c2cc1NC(=O)C12CC(C1)C2 [Example 340, N-(7-methoxy-4-(1-methyl-3-phenyl-1H-pyrazol-4-yl)quinazolin-6-yl)bicyclo[1.1.1]pentane-1-carboxamide] |
| 2.4 nM | 0.6 nM | 1.2 nM | COc1cc2ncnc(-c3cn(C)nc3-c3ccccc3)c2cc1NC(=O)C1CCC1 [Example 347, N-(7-methoxy-4-(1-methyl-3-phenyl-1H-pyrazol-4-yl)quinazolin-6-yl)cyclobutanecarboxamide] |
| 2.1 nM | 1.7 nM | 1.1 nM | COc1cc2ncnc(-c3cn(C)nc3-c3ccccc3F)c2nc1NC(=O)[C@]12COC[C@H]1C2 (single isomer, unassigned) [Example 386, (1S,5S)—N-(4-(3-(2-fluorophenyl)-1-methyl-1H-pyrazol-4-yl)-7-methoxypyrido[3,2-d]pyrimidin-6-yl)-3-oxabicyclo[3.1.0]hexane-1-carboxamide or (1R,5R)—N-(4-(3-(2-fluorophenyl)-1-methyl-1H-pyrazol-4-yl)-7-methoxypyrido[3,2-d]pyrimidin-6-yl)-3-oxabicyclo[3.1.0]hexane-1-carboxamide] |
| 1.7 nM | 2.7 nM | 0.7 nM | CCn1cc(-c2ncnc3cc(OC)c(NC(=O)[C@]45COC[C@H]4C5)cc23)c(-c2ccccc2F)n1 (mixture of isomers) [Example 263, (1S,5S)—N-(4-(1-ethyl-3-(2-fluorophenyl)-1H-pyrazol-4-yl)-7-methoxyquinazolin-6-yl)-3-oxabicyclo[3.1.0]hexane-1-carboxamide and (1R,5R)—N-(4-(1-ethyl-3-(2-fluorophenyl)-1H-pyrazol-4-yl)-7-methoxyquinazolin-6-yl)-3-oxabicyclo[3.1.0]hexane-1-carboxamide] |

Reference: patent US20250236608A1, “EGFR INHIBITORS” (Blueprint Medicines Corporation, priority 2022, published 2025)
